Reference: patent publication US9476099B2 (TRUSTEES OF DARTMOUTH COLLEGE, priority 2012, dated 2016)
Several values for one entry are separate records, joined by “and”; a condition that tells them apart may be missing. Equal entries are not always repeated.

Test system: NT2/D1-R1 control and DNMT3B knockdown cells
Assay: Genome-wide expression analysis with PAM clusters, control and DNMT3B knockdown cells (Tables 8-14)
Conditions: sh-3B + aza
[1] = NT2/D1-R1 DNMT3B knockdown, decitabine 10 nM 3 days

## Nc1ncn([C@H]2C[C@H](O)[C@@H](CO)O2)c(=O)n1 [aza]
10 nM decitabine, 3 days
  LOC644422 XR_019449 expression Mean: 223.185
  LOC647954 XR_018676 expression Mean: 1052.7
  LOC728715 XM_0011282 expression Mean: 877.255
  M6PRBP1 NM_005817 expression Mean: 907.761
  MBNL3 NM_133486 expression Mean: 272.09
  MCM4 NM_005914 expression Mean: 2040.37
  MEPCE NM_019606 expression Mean: 354.1
  METTL1 NM_005371 expression Mean: 266.779
  MORF4L2 NM_012286 expression Mean: 2564.56
  MRTO4 NM_016183 expression Mean: 654.553
  MT1E NM_175617 expression Mean: 1985.42
  MTA2 NM_004739 expression Mean: 325.004
  MYOF NM_013451 expression Mean: 177.015
  MYOF NM_133337 expression Mean: 293.772
  NACC2 NM_144653 expression Mean: 245.995
  NAT5 NM_181528 expression Mean: 1059.57
  NBPF10 NM_0010376 expression Mean: 370.658
  NBPF10 NM_0010397 expression Mean: 345.645
  NEFH NM_021076 expression Mean: 407.674
  NFE2 NM_006163 expression Mean: 245.362
  NM_002467 expression Mean: 595.692
  NM_0010397 expression Mean: 405.052
  NM_138781 expression Mean: 305.526
  NODAL NM_018055 expression Mean: 1549.19
  NOP2 NM_0010337 expression Mean: 5354.42
  NOP56 NM_006392 expression Mean: 2368.5
  NP NM_000270 expression Mean: 340.821
  NR_002773 expression Mean: 394.199
  NR_003287 expression Mean: 182.319
  NTF3 NM_002527 expression Mean: 184.819
  NTS NM_006183 expression Mean: 457.501
  NUAK2 NM_030952 expression Mean: 225.181 and 195.684
  OAT NM_000274 expression Mean: 2711.86
  ODC1 NM_002539 expression Mean: 2404.47
  PAK1IP1 NM_017906 expression Mean: 603.531
  PEA15 NM_003768 expression Mean: 969.289
  PEG3 NM_006210 expression Mean: 256.384
  PITX1 NM_002653 expression Mean: 267.398
  PLAU NM_002658 expression Mean: 325.966
  PLEKHF1 NM_024310 expression Mean: 367.904
  POLR1C NM_203290 expression Mean: 414.276 and 557.268
  PPA2 NM_006903 expression Mean: 606.161
  PPAN NM_002566 expression Mean: 287.832
  RBM22 NM_018047 expression Mean: 700.828
  RNMTL1 NM_018146 expression Mean: 432.796
  RPL6 NM_0010246 expression Mean: 1608.44
  RRM2 NM_001034 expression Mean: 799.058
  RSL1D1 NM_015659 expression Mean: 1458.69
  RUNX3 NM_004350 expression Mean: 191.132
  SERPINE1 NM_000602 expression Mean: 246.121
  SERTAD1 NM_013376 expression Mean: 291.604
  SFXN4 NM_213649 expression Mean: 481.671
  SIDT2 NM_0010404 expression Mean: 326.437
  SLC20A1 NM_005415 expression Mean: 1225.68
  SNAPC4 NM_003086 expression Mean: 599.752
  SOCS2 NM_003877 expression Mean: 182.936 and 244.438
  SOX15 NM_006942 expression Mean: 1693.21
  SPANXD NM_145665 expression Mean: 121.39
  SPRYD5 NM_032681 expression Mean: 293.721
  SQSTM1 NM_003900 expression Mean: 885.073
  SRRT NM_015908 expression Mean: 2745.27
  SUSD2 NM_019601 expression Mean: 1694.29
  TAGLN NM_003186 expression Mean: 489.068
  TNFRSF12A NM_016639 expression Mean: 296.715
  TNFRSF13B NM_012452 expression Mean: 214.796
  TNPO1 NM_153188 expression Mean: 240.816
  TPRG1L NM_182752 expression Mean: 762.223
  TRIM8 NM_030912 expression Mean: 529.909
  TTC4 NM_004623 expression Mean: 851.239
  UTP14A NM_006649 expression Mean: 736.541
  WBSCR22 NM_017528 expression Mean: 958.822
  XM_0011261 expression Mean: 824.879
  XM_0011281 expression Mean: 1290.15
  XR_015970 expression Mean: 527.915
  XR_016703 expression Mean: 4025.84
  XR_017241 expression Mean: 5144.11
  XR_017543 expression Mean: 410.447
  ZDHHC6 NM_022494 expression Mean: 344.248
  ZHX2 NM_014943 expression Mean: 196.281
[1]
  A4GALT (NM_017436) gene expression, Mean: 279.705
  ABR (NM_001092) gene expression, Mean: 376.941
  ACACA (NM_198836) gene expression, Mean: 630.777
